Results reported in PMC13187428, “Mechanistic basis for selective Csm6-2 activation by cyclic penta-adenylate in a type III CRISPR-Cas system” (The EMBO Journal, 2026).
Like-named read-outs stand apart in the source and are kept apart here.

How the values were obtained:
[1] = molecular target: T1, Csm6-2 (ApCsm6-2) (Actinomyces procaprae, UniProt Z9IBH4OPS2); assay: SPR (Biacore 8K, CM5 chip, amine-coupled Csm6-2); assay type: binding
T1 construct: full length, tandem CARF1-HEPN1 (1-400) and CARF2-HEPN2 (401-797); N-terminal His6 tag, pET-28a, E. coli Rosetta (DE3), codon-optimised; homotetramer
T1 sequence (Z9IBH4OPS2 1-797): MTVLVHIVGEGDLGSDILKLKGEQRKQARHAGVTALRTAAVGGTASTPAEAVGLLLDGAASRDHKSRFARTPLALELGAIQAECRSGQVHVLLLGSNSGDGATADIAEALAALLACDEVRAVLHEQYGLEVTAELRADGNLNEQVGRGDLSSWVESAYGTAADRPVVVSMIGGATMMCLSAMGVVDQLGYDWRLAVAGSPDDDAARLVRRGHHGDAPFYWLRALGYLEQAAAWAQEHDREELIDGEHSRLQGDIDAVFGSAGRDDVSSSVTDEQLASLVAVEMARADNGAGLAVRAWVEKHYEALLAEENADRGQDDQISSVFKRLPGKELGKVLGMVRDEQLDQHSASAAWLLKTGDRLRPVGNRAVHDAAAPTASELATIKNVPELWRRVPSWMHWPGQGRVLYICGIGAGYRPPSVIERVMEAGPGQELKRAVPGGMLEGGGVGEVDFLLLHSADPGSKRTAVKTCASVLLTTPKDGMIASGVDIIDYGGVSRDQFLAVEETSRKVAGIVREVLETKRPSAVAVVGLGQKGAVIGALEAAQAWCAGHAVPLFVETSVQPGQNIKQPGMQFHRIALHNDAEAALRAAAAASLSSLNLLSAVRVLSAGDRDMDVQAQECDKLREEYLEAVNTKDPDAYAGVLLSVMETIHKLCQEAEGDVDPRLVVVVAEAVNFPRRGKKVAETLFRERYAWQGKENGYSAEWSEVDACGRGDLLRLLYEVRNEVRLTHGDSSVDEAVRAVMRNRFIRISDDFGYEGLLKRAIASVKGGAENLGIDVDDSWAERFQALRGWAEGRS

[2] = molecular target: Csm6-2 L473E/L474E mutant (Actinomyces procaprae); assay: SEC; size-exclusion chromatography profiles of WT and L473E/L474E mutant proteins

## Nc1ncnc2c1ncn2[C@@H]1O[C@@H]2COP(=O)(O)O[C@H]3[C@@H](O)[C@H](n4cnc5c(N)ncnc54)O[C@@H]3COP(=O)(O)O[C@H]3[C@@H](O)[C@H](n4cnc5c(N)ncnc54)O[C@@H]3COP(=O)(O)O[C@H]3[C@@H](O)[C@H](n4cnc5c(N)ncnc54)O[C@@H]3COP(=O)(O)O[C@H]3[C@@H](O)[C@H](n4cnc5c(N)ncnc54)O[C@@H]3COP(=O)(O)O[C@H]2[C@H]1O [cA5]
[1]; PBST (0.5% Tween-20) running buffer, allosteric activator, CARF domain pocket
  Kd: 1.41 nM

## Nc1ncnc2c1ncn2[C@@H]1O[C@@H]2COP(=O)(O)O[C@H]3[C@@H](O)[C@H](n4cnc5c(N)ncnc54)O[C@@H]3COP(=O)(O)O[C@H]3[C@@H](O)[C@H](n4cnc5c(N)ncnc54)O[C@@H]3COP(=O)(O)O[C@H]3[C@@H](O)[C@H](n4cnc5c(N)ncnc54)O[C@@H]3COP(=O)(O)O[C@H]3[C@@H](O)[C@H](n4cnc5c(N)ncnc54)O[C@@H]3COP(=O)(O)O[C@H]3[C@@H](O)[C@H](n4cnc5c(N)ncnc54)O[C@@H]3COP(=O)(O)O[C@H]2[C@H]1O [cA6]
[1]
  Kd: 3.72 nM

## Csm6-2 L473E/L474E mutant (enzyme)
[2]
  stoichiometry N: 2
